The values below come from BindingDB's records for doi:10.1016/j.bmc.2009.08.052 (Okayama University, 2009).

By IC50 is commonly meant the concentration that inhibits the measured activity by half. Low readings indicate inhibition by little substance, high ones a need for much substance. One may read the Ki as the equilibrium dissociation constant of an inhibitor or competing ligand from its target.

The target of assay [1] is Beta-hexosaminidase (Homo sapiens). The experiment in a line: Inhibition of human placenta beta-N-acetylglucosaminidase by pNP-GlcNAc substrate hydrolysis assay.
Assay [2] has the same target. The experiment in a line: Mixed type inhibition of human placenta beta-N-acetylglucosaminidase by pNP-GlcNAc substrate hydrolysis assay.

In assay [1], `CC(=O)NC[C@H]1[C@H](O)[C@H](O)[C@@H]2[C@H](O)C[C@@H](CO)N21` [(1R*, 3S*, 5S*, 6S*, 7R*, 7a S*)-5-acetamidomethyl-3-hydroxymethyl-1,6,7-trihydroxypyrrolizidine] showed an IC50 of 2.39 nM. Besides, in assay [2], affinity was put at a Ki of 1.25 nM.
